One test deals with B-Raf (V600E)-kinase (Homo sapiens, UniProt P15056, V600E). The test is described as follows: Kinase test B-Raf (V600E). It counts as biochemical. As to conditions: compound concentration 2 μM; 100% = no inhibition, 0% = total inhibition; read-out: % CTL (residual activity of the enzyme relative to DMSO control). Summed up:
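Kinase preincubated with compound (typically 2 μM to 0.119 nM or 0.017 nM, 5% DMSO) 1 h at RT, then reacted 60 min at RT with 250 μM ATP and biotinylated MEK1. Phospho-MEK (Ser217/221) captured on streptavidin, detected by europium time-resolved fluorescence; IC50 from dose-response curves.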
Chain of B-Raf (V600E)-kinase (P15056 whole entry V600E): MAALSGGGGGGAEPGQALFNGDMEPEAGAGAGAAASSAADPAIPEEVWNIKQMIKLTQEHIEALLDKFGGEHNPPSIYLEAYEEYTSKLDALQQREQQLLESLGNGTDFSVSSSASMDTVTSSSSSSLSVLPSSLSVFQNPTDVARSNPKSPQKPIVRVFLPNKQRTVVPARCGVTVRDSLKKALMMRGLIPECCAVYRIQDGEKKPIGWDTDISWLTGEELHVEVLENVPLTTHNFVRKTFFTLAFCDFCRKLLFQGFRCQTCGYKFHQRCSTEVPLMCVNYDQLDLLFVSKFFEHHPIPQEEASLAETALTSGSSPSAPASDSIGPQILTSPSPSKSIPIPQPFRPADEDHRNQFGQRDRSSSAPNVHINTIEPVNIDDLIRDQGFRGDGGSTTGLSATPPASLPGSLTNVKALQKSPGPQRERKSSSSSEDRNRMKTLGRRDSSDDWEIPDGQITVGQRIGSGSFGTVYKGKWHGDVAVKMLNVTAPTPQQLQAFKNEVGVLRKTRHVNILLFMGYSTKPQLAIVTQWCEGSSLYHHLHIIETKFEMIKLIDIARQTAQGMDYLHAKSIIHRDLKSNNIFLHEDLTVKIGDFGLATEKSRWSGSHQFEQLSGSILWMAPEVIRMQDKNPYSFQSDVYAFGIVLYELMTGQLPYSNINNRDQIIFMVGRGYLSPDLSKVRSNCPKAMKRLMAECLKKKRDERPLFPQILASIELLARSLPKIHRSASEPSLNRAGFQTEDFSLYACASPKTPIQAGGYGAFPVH
With `CCN1CCN(Cc2cncc(-c3cn(-c4cc(C(=O)Nc5cc(C(C)(C)C)on5)cnc4C)nn3)c2)CC1` [Example I-188], the remaining activity at 2 µM turned out to be 1.5%.

For the compound `Cc1ncc(C(=O)Nc2cc(C(C)(C)C)on2)cc1-n1cc(-c2cncc(CN3CCC(F)(F)C3)c2)nn1` [Example I-189], the remaining activity at 2 µM is 3.8%. On to `Cc1ncc(C(=O)Nc2cc(C(C)(C)C)on2)cc1-n1cc(-c2cncc(CN3CCN(C(C)C)CC3)c2)nn1` [Example I-190], for which the remaining activity at 2 µM was 4.1%. On to `CCN(C)Cc1cncc(-c2cn(-c3cc(C(=O)Nc4cc(C(C)(C)C)on4)cnc3C)nn2)c1` [Example I-191], for which the remaining activity at 2 µM turned out to be 3%.

With `Cc1ncc(C(=O)Nc2cc(C(C)(C)C)on2)cc1-n1cc(-c2cncc(CN3CC[C@@H](F)C3)c2)nn1` [Example I-192], the remaining activity at 2 µM was found to be 1.9%. `Cc1ncc(C(=O)Nc2cc(C(C)(C)C)on2)cc1-n1cc(-c2cncc(CN3CC[C@H](F)C3)c2)nn1` [Example I-193]: the remaining activity at 2 µM was 3.6%. Take `Cc1ncc(C(=O)Nc2cc(C(C)(C)C)on2)cc1-n1cc(-c2cncc(CN)c2)nn1` [Example I-194]: the remaining activity at 2 µM was 2.1%. Consider `Cc1ncc(C(=O)Nc2cc(C(C)(C)C)on2)cc1-n1cc(-c2cncc(N3CCC4(CCN(C)CC4)CC3)c2)nn1` [Example I-195], for which the remaining activity at 2 µM worked out at 0.8%.

For the compound `Cc1ncc(C(=O)Nc2cc(C(C)(C)C)on2)cc1-n1cc(-c2cncc(NC3CC(N4CCN(C)CC4)C3)c2)nn1` (stereo not shown) [Example I-196], the remaining activity at 2 µM worked out at 1%. For the compound `Cc1ncc(C(=O)Nc2cc(C(C)(C)C)on2)cc1-n1cc(-c2cncc(N3CCN(CCOC(C)C)CC3)c2)nn1` [Example I-197], the remaining activity at 2 µM came out at 1%.

In the case of `Cc1ncc(C(=O)Nc2cc(C(C)(C)C)on2)cc1-n1cc(-c2cncc(N3CCN(CCF)CC3)c2)nn1` [Example I-198], the remaining activity at 2 µM is 1.7%. For `Cc1ncc(C(=O)Nc2cc(C(C)(C)C)on2)cc1-n1cc(-c2cncc(NC3CCN(C(C)C)CC3)c2)nn1` [Example I-199], the remaining activity at 2 µM stood at 1.6%. `Cc1ncc(C(=O)Nc2cc(C(C)(C)C)on2)cc1-n1cc(-c2cncc(N(C)C3CCN(C(C)C)CC3)c2)nn1` [Example I-200]: the remaining activity at 2 µM stood at 1%. Regarding `COCCN1CCCN(c2cncc(-c3cn(-c4cc(C(=O)Nc5cc(C(C)(C)C)on5)cnc4C)nn3)c2)CC1` [Example I-201], the remaining activity at 2 µM stood at 1.6%. With `Cc1ncc(C(=O)Nc2cc(C(C)(C)C)on2)cc1-n1cc(-c2cncc(N3CCCN(C)CC3)c2)nn1` [Example I-202], the remaining activity at 2 µM was determined as 1.6%. The same measure, in the same setting: the figure for `CCC(CC)N1CCN(c2cncc(-c3cn(-c4cc(C(=O)Nc5cc(C(C)(C)C)on5)cnc4C)nn3)c2)CC1` [Example I-204] is 1%; for `Cc1ncc(C(=O)Nc2cc(C(C)(C)C)on2)cc1-n1cc(-c2cncc(N3CCC(N4CCN(C)CC4)CC3)c2)nn1` [Example I-205] it is 0.8%; for `Cc1ncc(C(=O)Nc2cc(C(C)(C)C)on2)cc1-n1cc(-c2cncc(N3CCC(CN4CCOCC4)CC3)c2)nn1` [Example I-206] it is 0.9%. With `Cc1ncc(NC(=O)c2cc(N3CCN(C)CC3)cc(C(F)(F)F)c2)cc1-n1cc(-c2cnn(C)c2C)nn1` [XII-1], the remaining activity at 2 µM was 4.4%.

`Cc1ncc(NC(=O)c2cc(C(F)(F)F)ccn2)cc1-n1cc(-c2cnn(C)c2C)nn1` [XII-2]: the remaining activity at 2 µM was determined as 4.6%. Consider `Cc1ncc(NC(=O)c2cc(C(C)(C)C)on2)cc1-n1cc(-c2cnn(C)c2C)nn1` [XII-3], for which the remaining activity at 2 µM is 4.7%. On to `Cc1ncc(NC(=O)c2cc(N3CCN(C)CC3)c(F)c(C(F)(F)F)c2)cc1-n1cc(-c2cnn(C)c2C)nn1` [XII-5], for which the remaining activity at 2 µM stood at 1.8%.

As to `Cc1ncc(NC(=O)c2cccc(C(C)(C)C#N)c2)cc1-n1cc(-c2cnn(C)c2C)nn1` [XII-6], the remaining activity at 2 µM came out at 4.7%. Regarding `COc1ccc(C(=O)Nc2cnc(C)c(-n3cc(-c4cnn(C)c4C)nn3)c2)cc1C(F)(F)F` [XII-7], the remaining activity at 2 µM came out at 4.7%. In the case of `Cc1ncc(NC(=O)c2cccc(OC(F)(F)F)c2)cc1-n1cc(-c2cnn(C)c2C)nn1` [XII-8], the remaining activity at 2 µM came to 6.4%. Regarding `Cc1ccc(C(F)(F)F)cc1C(=O)Nc1cnc(C)c(-n2cc(-c3cnn(C)c3C)nn2)c1` [XII-9], the remaining activity at 2 µM was 6.6%. As to `Cc1ncc(NC(=O)c2cccc(C(C)(C)C#N)c2)cc1-n1cc(-c2cncnc2)nn1` [XII-10], the remaining activity at 2 µM came out at 2.5%. Turning to `COc1cncc(-c2cn(-c3cc(NC(=O)c4cccc(C(C)(C)C#N)c4)cnc3C)nn2)c1` [XII-12], the remaining activity at 2 µM came out at 5.2%. On to `Cc1ncc(NC(=O)c2cccc(C(C)(C)C#N)c2)cc1-n1cc(-c2cncc(C#N)c2)nn1` [XII-13], for which the remaining activity at 2 µM came out at 0.9%. As for `Cc1ncc(NC(=O)c2cc(OC(F)(F)F)cc(N3CCN(C)CC3)c2)cc1-n1cc(-c2cnn(C)c2C)nn1` [XII-15], the remaining activity at 2 µM was determined as 0.8%. In the case of `COc1cncc(-c2cn(-c3cc(NC(=O)c4cc(OC(F)(F)F)cc(N5CCN(C)CC5)c4)cnc3C)nn2)c1` [XII-16], the remaining activity at 2 µM worked out at 0.7%. `Cc1ncc(NC(=O)c2cc(OC(F)(F)F)cc(N3CCN(C)CC3)c2)cc1-n1cc(-c2cccnc2)nn1` [XII-17]: the remaining activity at 2 µM turned out to be 0.9%. In the case of `Cc1cn2c(-c3cn(-c4cc(NC(=O)c5cc(N6CCN(C)CC6)c(C)c(C(F)(F)F)c5)cnc4C)nn3)cnc2cn1` [XII-18], the remaining activity at 2 µM amounted to 2.1%. With `CC(=O)Nc1ncc(-c2cn(-c3cc(NC(=O)c4cc(OC(F)(F)F)cc(N5CCN(C)CC5)c4)cnc3C)nn2)s1` [XII-19], the remaining activity at 2 µM is 6.5%. Consider `Cc1ncc(NC(=O)c2cc(OC(F)(F)F)cc(N(C)CCN(C)C)c2)cc1-n1cc(-c2cnn(C)c2C)nn1` [XII-20], for which the remaining activity at 2 µM was 1.6%. In the case of `Cc1ncc(NC(=O)c2cc(NCCN(C)C)cc(OC(F)(F)F)c2)cc1-n1cc(-c2cnn(C)c2C)nn1` [XII-21], the remaining activity at 2 µM worked out at 1.5%. `CCN1CCN(c2cc(OC(F)(F)F)cc(C(=O)Nc3cnc(C)c(-n4cc(-c5cnn(C)c5C)nn4)c3)c2)CC1` [XII-22]: the remaining activity at 2 µM turned out to be 3.4%. In the case of `Cc1ncc(-c2cn(-c3cc(NC(=O)c4cc(OC(F)(F)F)cc(N5CCN(C)CC5)c4)cnc3C)nn2)s1` [XII-23], the remaining activity at 2 µM is 7.2%. On to `COCCN1CCN(c2cc(OC(F)(F)F)cc(C(=O)Nc3cnc(C)c(-n4cc(-c5cnn(C)c5C)nn4)c3)c2)CC1` [XII-24], for which the remaining activity at 2 µM came out at 3.8%. As for `Cc1ncc(NC(=O)c2cc(OC(F)(F)F)cc(N3CCOCC3)c2)cc1-n1cc(-c2cnn(C)c2C)nn1` [XII-25], the remaining activity at 2 µM is 3.9%. With `Cc1ncc(NC(=O)c2cc(OC(F)(F)F)cc(N3CCN(C)CC3)c2)cc1-n1cc(-c2cncnc2)nn1` [XII-26], the remaining activity at 2 µM worked out at 2.2%. With `Cc1ncc(NC(=O)c2cc(OC(F)(F)F)cc(N3CCN(C)CC3)c2)cc1-n1cc(-c2cncc(C#N)c2)nn1` [XII-27], the remaining activity at 2 µM was 2.4%. Same read-out and setting: as for `Cc1ncc(NC(=O)c2cc(OC(F)(F)F)cc(N(C)C3CCN(C)C3)c2)cc1-n1cc(-c2cnn(C)c2C)nn1` (stereo not shown) [XII-28], the figure is 2%. Regarding `Cc1ncc(NC(=O)c2cc(OC(F)(F)F)cc(N3CCC(N(C)C)C3)c2)cc1-n1cc(-c2cnn(C)c2C)nn1` (stereo not shown) [XII-29], the remaining activity at 2 µM was 1.6%.

For `Cc1ncc(NC(=O)c2cc(OC(F)(F)F)cc(C3=CCNCC3)c2)cc1-n1cc(-c2cnn(C)c2C)nn1` [XII-30], the remaining activity at 2 µM stood at 1.8%. As for `COCCCN1CCN(c2cncc(-c3cn(-c4cc(NC(=O)c5cc(C(F)(F)F)ccn5)cnc4C)nn3)c2)CC1` [XII-31], the remaining activity at 2 µM turned out to be 1.9%.

On to `Cc1ncc(NC(=O)c2cc(C(F)(F)F)ccn2)cc1-n1cc(-c2cncc(N3CCN(C(C)(C)C)CC3)c2)nn1` [XII-32], for which the remaining activity at 2 µM was 2.9%. Turning to `CCOCCN1CCN(c2cncc(-c3cn(-c4cc(NC(=O)c5cc(C(F)(F)F)ccn5)cnc4C)nn3)c2)CC1` [XII-33], the remaining activity at 2 µM is 1.7%.

As to `Cc1ncc(NC(=O)c2cccc(C(C)(C)C#N)c2)cc1-n1cc(-c2cncc(N3CCN(C)CC3)c2)nn1` [XII-34], the remaining activity at 2 µM came to 0.8%.

As for `Cc1ncc(NC(=O)c2cc(C(F)(F)F)ccn2)cc1-n1cc(-c2cncc(N3CCN(C(C)C)CC3)c2)nn1` [XII-35], the remaining activity at 2 µM worked out at 1.7%. Take `Cc1ncc(NC(=O)c2cccc(OC(F)(F)F)c2)cc1-n1cc(-c2cncc(N3CCN(C)CC3)c2)nn1` [XII-36]: the remaining activity at 2 µM was 1.3%.

Consider `Cc1ncc(NC(=O)c2cc(C(F)(F)F)ccn2)cc1-n1cc(-c2cncc(N3CCN(CC(C)C)CC3)c2)nn1` [XII-37], for which the remaining activity at 2 µM is 2.3%. Regarding `CCN1CCN(c2cncc(-c3cn(-c4cc(NC(=O)c5cc(C(F)(F)F)ccn5)cnc4C)nn3)c2)CC1` [XII-38], the remaining activity at 2 µM was determined as 2.1%. In the case of `CCN1CCN(c2cncc(-c3cn(-c4cc(NC(=O)c5ccc(OC)c(C(F)(F)F)c5)cnc4C)nn3)c2)CC1` [XII-39], the remaining activity at 2 µM stood at 2.5%. On the same count and under the same terms, the figure for `CCCN1CCN(c2cncc(-c3cn(-c4cc(NC(=O)c5cc(C(F)(F)F)ccn5)cnc4C)nn3)c2)CC1` [XII-41] is 3.1%.

The test is the same for the next values; noted with them: measurement at 0.29 μM (*); 100% = no inhibition, 0% = total inhibition; read-out: % CTL (residual activity of the enzyme relative to DMSO control).
For the compound `CC(=O)Nc1ncc(-c2cn(-c3cc(NC(=O)c4cccc(C(C)(C)C#N)c4)cnc3C)nn2)s1` [XII-14], the remaining activity at 0.29 µM worked out at 0.9%.

`COc1ccc(C(=O)Nc2cnc(C)c(-n3cc(-c4cncc(N5CCN(C)CC5)c4)nn3)c2)cc1C(F)(F)F` [XII-40]: the remaining activity at 0.29 µM was found to be 3%.

The test is the same for the next values; noted with them: measurement at 1.43 μM (***); 100% = no inhibition, 0% = total inhibition; read-out: % CTL (residual activity of the enzyme relative to DMSO control).
For `Cc1ncc(NC(=O)c2cccc(C(C)(C)C#N)c2)cc1-n1cc(-c2cccnc2)nn1` [XII-11], the remaining activity at 1.43 µM was 1.5%.
